The source of these data is patent US20030031689A1, “Method of skin exfoliation” (priority 2001, published 2003).

Assay [1] deals with skin flakiness (stratum corneocytes on the back of the hand). The experiment in a line: Reduction of skin flakiness (D-Squame discs, image analysis) after twice daily topical application to the hand. In kind it is in vivo, human. Particulars: used at 2%. An excerpt:
In tests conducted to compare the efficacy of various agents of this type, mannose-6-phosphate caused a reduction in skin flakiness that exceeded the reduction achieved by N-acetyl glucosamine, lactobionic acid, and various mixtures of alpha hydroxy acids, all used at the same or higher levels than the mannose-6-phosphate. In a representative test, mannose-6-phosphate used at 1% reduced skin flakiness, a common measure of exfoliation efficacy, at a level of 24% after two weeks of treatment and 36% at four weeks. […] Thus, mannose-6-phosphate is particularly and unexpectedly effective for desquamation.
Thirty female subjects between the ages of 21 and 65 are selected to test the efficacy of mannose-6-phosphate in reducing skin flakiness, an indicator of exfoliation efficacy. The subjects are instructed not to use moisturizers or any other products on their hands, and their baseline measurements are taken. […] At the end of two and four weeks the subjects return for testing without applying the product for at least 12 hours and they are re-evaluated under the same conditions. […]
To evaluate the efficacy of the treatment products, four D-Squame discs are firmly and evenly pressed on the back of each hand with a hand held uniform pressure device and removed by gently pulling away from the skin. […] Desquamation is evaluated from the D-Squame discs via an OPTIMA image analyzer. […]

The subject of assay [2] is Normal Human Dermal Fibroblasts(NHDF). The experiment in a line: Glycosaminoglycan synthesis by 3H-glucosamine incorporation in fibroblast cultures. It is filed as cell-based. Particulars: 48 hours. How it is done: Both mannose and mannose-6-phosphate are tested at various levels from 0.01 mg/ml to 1 mg/ml for their ability to increase the amount of glycosaminoglycans in Normal Human Dermal Fibroblasts(NHDF), using TGF- at 5 and 10 ng/ml as a positive control. NHDF cells are seeded and grown to confluence in a 24 well plate prior to being treated with the test extracts(n=3). At the same time as the treatment, the cultures are labeled with […] of ^3H-glucosamine. The cultures are incubated for 48 hours and extensively washed to remove unbound ^3H-glucosamine prior to being lysed and counted on a scintillation counter. The resulting counts represent newly synthesized glycosaminoglycans. Since glucosamine is required for glycosaminoglycan synthesis, the radioactive glucosamine added to the culture will be incorporated into any glycosaminoglycans synthesized after the addition of the treatment samples. Relative protein levels are determined by comparing the absorbance at 280 nm, of the cell lysates, to the absorbances of a bovine serum albumin curve. […] TGF-, the positive control, is found to increase levels by 28% at 10 ng/ml.

For the compound `O=C(O)[C@H](O)[C@@H](O)[C@H](O[C@@H]1O[C@H](CO)[C@H](O)[C@H](O)[C@H]1O)[C@H](O)CO` [lactobionic acid], the “reduction in skin flakiness” value in assay [1] (after two weeks of treatment) is given as 16%; in assay [1] (at four weeks), 25%.
In the case of `O=C[C@@H](O)[C@@H](O)[C@H](O)[C@H](O)COP(=O)(O)O` [mannose-6-phosphate], the “increase of glycosaminoglycan levels (normalized to protein levels)” value in assay [2] (0.1 mg/ml) is given as 20%. The “effect on glycosaminoglycan levels” value in assay [2] (levels lower and higher than 0.1 mg/ml (tested 0.01 mg/ml to 1 mg/ml)) is on record as “did not have any significant effect”.
